This is an account of results in US11028090B2 (Dong Wha Pharm. Co., Ltd., priority 2017, dated 2021).

For test [1], the system named is acute myelogenous leukemia cells (MV-4-11 cells). In words: Cytotoxicity to acute myelogenous leukemia cells (MV-4-11 cells), CCK-8. The note with it: Homo sapiens, MV4-11, 72 h.
Test [2] addresses BRD4 (BD1+BD2) bromodomain (Homo sapiens (Human), UniProt O60885). The test can be described thus: BRD4 binding inhibition (AlphaScreen, GST-BRD4 vs tetraacetylated histone H4 peptide). Summed up: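 GST-BRD4 (BD1+BD2) and biotinylated tetraacetyl-histone H4 peptide, each at 100 nM in HEPES pH 7.4 buffer with BSA and DTT, were combined with compound. Glutathione acceptor and streptavidin donor beads were added, then incubated 30 min at room temperature in the dark. Read-out was AlphaScreen signal.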

[3] abbreviates: read-out: MV-4-11 Cytotoxicity IC50.
Where [4] appears, read: GST-BRD4 (BD1+BD2) / biotinylated acetyl-histone H4 (Lys5,8,12,16) peptide, read-out: IC50, BRD4 binding inhibition.
[5] abbreviates: read-out: IC50, cytotoxicity against acute myelogenous leukemia cells.
[6] abbreviates: GST-BRD4 (BD1+BD2) vs biotinylated acetyl-histone H4 peptide, AlphaScreen, read-out: BRD4 IC50.

Counter-ions that a name gives are not always drawn. Like-named read-outs stand apart in the source and are kept apart here.

As for `COc1ccc2c(nc(NCCCCNC(=O)OCC(C)C)c3nnc(C)n32)c1Cl` [Example 462, [4-(6-chloro-7-methoxy-1-methyl-[1,2,4]triazolo[4,3-a]quinoxaline-4-ylamino)-butyl]-carbamic acid isobutylester], the IC50 in test [1] (setting [3]) was 600 nM; in test [2] (setting [4]) it was not above 50 nM.

In the case of `COc1ccc2c(nc(NCCCCNC(=O)CC(C)C)c3nnc(C)n32)c1Cl` [Example 461, [4-(6-chloro-7-methoxy-1-methyl-[1,2,4]triazolo[4,3-a]quinoxaline-4-ylamino)-butyl]-3-methyl-butyramide], the concentration for half-maximal inhibition (IC50) was 250 nM in test [1] (setting [3]) and not above 50 nM in test [2] (setting [4]).

Take `CCC(CC)C(=O)NCCCCNc1nc2cc(OC)ccc2n2c(C)nnc12` [Example 290, 2-ethyl-N-[4-(7-methoxy-1-methyl-[1,2,4]triazolo[4,3-a]quinoxaline-4-ylamino)-butyl]-butyramide]: the IC50 in test [1] (setting [5]) was not above 200 nM; in test [1] (setting [3]) it was 150 nM; in test [2] (setting [4]) it was not above 50 nM; in test [2] (setting [6]), 23 nM.

As for `COCCOc1ccc2c(c1)nc(NCCCCNC(=O)C(C)(C)C)c1nnc(C)n12` [Example 375, {4-[7-(2-methoxy-ethoxy)-1-methyl-[1,2,4]triazolo[4,3-a]quinoxaline-4-ylamino]-butyl}-2,2-dimethyl-propionamide], the IC50 in test [1] (setting [3]) was 400 nM; in test [2] (setting [4]) it was not above 50 nM.

As to `COc1c(C)ccc2c1nc(NCCCCNC(=O)[C@@H](O)C(C)C)c1nnc(C)n12` [Example 137, 2-(S)-hydroxy-N-[4-(6-methoxy-1,7-dimethyl-[1,2,4]triazolo[4,3-a]quinoxaline-4-ylamino)-butyl]-3-methyl-butyramide], the IC50 in test [1] (setting [3]) is 370 nM; in test [2] (setting [4]), not above 10 nM; in test [2] (setting [6]), 6 nM.

For `COc1cc2nc(NCCCCNC(=O)[C@@H](O)C(C)C)c3nnc(C)n3c2cc1OC` [Example 83, N-[4-(7,8-dimethoxy-1-methyl-[1,2,4]triazolo[4,3-a]quinoxaline-4-ylamino)-butyl]-2-(S)-hydroxy-3-methyl-butyramide], the IC50 in test [1] (setting [3]) is 211 nM; in test [2] (setting [4]), not above 10 nM; in test [2] (setting [6]), 2 nM.

Consider `CCc1nnc2c(NCCCCNC(=O)OC(C)(C)C)nc3cc(OC)c(OC)cc3n12` [Example 594, [4-(1-ethyl-7,8-dimethoxy-[1,2,4]triazolo[4,3-a]quinoxaline-4-ylamino)-butyl]-carbamic acid-tert-butylester], for which the values for the IC50 in test [1] (setting [3]) and in test [2] (setting [6]) were 880 nM and 76 nM, respectively.

For `C/C=C/C(=O)NCCCCNc1nc2cc(OCCOC)ccc2n2c(C)nnc12` [Example 379, butene-2-oic acid{4-[7-(2-methoxy-ethoxy)-1-methyl-[1,2,4]triazolo[4,3-a]quinoxaline-4-ylamino]-butyl}-amide], the IC50 in test [1] (setting [3]) is 420 nM; in test [2] (setting [4]), not above 50 nM; in test [2] (setting [6]), 17 nM.

With `Cc1nnc2c(NCCCCNC(=O)[C@@H](N)C(C)C)nc3cc(N4CCOCC4)ccc3n12` [Example 503, 2-(S)-amino-3-methyl-N-[4-(1-methyl-7-morpholine-4-yl-[1,2,4]triazolo[4,3-a]quinoxaline-4-ylamino)-butyl]-butyramide hydrochloride], the IC50 in test [1] (setting [3]) was found to be 575 nM; in test [2] (setting [6]), 63 nM.

With `CCOc1ccc2c(c1)nc(NCCCCNC(=O)OC(C)C)c1nnc(C)n12` [Example 443, [4-(7-ethoxy-1-methyl-[1,2,4]triazolo[4,3-a]quinoxaline-4-ylamino)-butyl]-carbamic acid isopropylester], the IC50 is not above 200 nM in test [1] (setting [5]), 120 nM in test [1] (setting [3]), not above 50 nM in test [2] (setting [4]) and 13 nM in test [2] (setting [6]).

Regarding `COc1cc2nc(NCCCCNC(=O)c3ccccc3)c3nnc(C)n3c2cc1OC` [Example 95, N-[4-(7,8-dimethoxy-1-methyl-[1,2,4]triazolo[4,3-a]quinoxaline-4-ylamino)-butyl]-benzamide], the results for the half-inhibitory concentration (IC50) in test [1] (setting [3]), in test [2] (setting [4]) and in test [2] (setting [6]) were 590 nM, not above 50 nM and 36 nM, respectively.

Turning to `COCCOc1ccc2c(c1)nc(NCCCCNC(=O)c1ccccc1)c1nnc(C)n12` [Example 408, N-{4-[7-(2-methoxy-ethoxy)-1-methyl-[1,2,4]triazolo[4,3-a]quinoxaline-4-ylamino]-butyl}-benzamide], the IC50 in test [1] (setting [3]) is 620 nM; in test [2] (setting [4]), not above 50 nM; in test [2] (setting [6]) it was 13 nM.

As for `COc1cc(C)c2nc(NCCCCN)c3nnc(C)n3c2c1` [Example 159, N^1-(8-methoxy-1,6-dimethyl-[1,2,4]triazolo[4,3-a]quinoxaline-4-yl)-butane-1,4-diamine ditrifluoroacetic acid], the IC50 is 530 nM in test [1] (setting [3]), not above 50 nM in test [2] (setting [4]) and 24 nM in test [2] (setting [6]).

With `COc1ccc2c(c1)nc(NCCCCNC(=O)CCC(C)C)c1nnc(C)n12` [Example 288, 4-methyl-pentanoic acid-[4-(7-methoxy-1-methyl-[1,2,4]triazolo[4,3-a]quinoxaline-4-ylamino)-butyl]-amide], the IC50 in test [1] (setting [5]) is not above 200 nM; in test [1] (setting [3]), 34 nM; in test [2] (setting [4]) it was not above 50 nM; in test [2] (setting [6]) it was 15 nM.

Regarding `Cc1nnc2c(NCCCCNC(=O)c3ccccc3Cl)nc3cc(OCCN4CCOCC4)ccc3n12` [Example 439, 2-chloro-N-{4-[1-methyl-7-(2-morpholine-4-yl-ethoxy)-[1,2,4]triazolo[4,3-a]quinoxaline-4-ylamino]-butyl}-benzamide], the IC50 is not above 200 nM in test [1] (setting [5]), 100 nM in test [1] (setting [3]), not above 50 nM in test [2] (setting [4]) and 38 nM in test [2] (setting [6]).

For `Cc1nnc2c(NCCCCNC(=O)CC(C)C)nc3cc(N4C[C@@H](C)O[C@@H](C)C4)ccc3n12` [Example 510, N-{4-[7-(2,6-dimethyl-morpholine-4-yl)-1-methyl-[1,2,4]triazolo[4,3-a]quinoxaline-4-ylamino]-butyl}-3-methyl-butyramide], the IC50 in test [1] (setting [3]) came out at 335 nM; in test [2] (setting [6]), 57 nM.

In the case of `COc1ccc2c(c1)nc(NCCCCNC(=O)[C@H](C(C)C)N1CCC(O)C1)c1nnc(C)n12` (stereo partly drawn) [Example 315, 2-(S)-(3-hydroxy-pyrrolidine-1-yl)-N-[4-(7-methoxy-1-methyl-[1,2,4]triazolo[4,3-a]quinoxaline-4-ylamino)-butyl]-3-methyl-butyramide], the IC50 in test [1] (setting [3]) is 550 nM; in test [2] (setting [4]), not above 50 nM; in test [2] (setting [6]) it was 36 nM.

For `Cc1nnc2c(NCCCCNC(=O)CC(C)C)nc3cc(OCC4CCCCO4)ccc3n12` (stereo not shown) [Example 343, 3-methyl-N-{4-[1-methyl-7-(tetrahydro-pyran-2-yl-methoxy)-[1,2,4]triazolo[4,3-a]quinoxaline-4-ylamino]-butyl}-butyramide], the IC50 in test [1] (setting [5]) is not above 200 nM; in test [1] (setting [3]), 120 nM; in test [2] (setting [4]) it was not above 50 nM; in test [2] (setting [6]) it was 36 nM.

`COCCOc1ccc2c(c1)nc(NCCCCNC(=O)[C@@H](NC(=O)OC(C)C)C(C)C)c1nnc(C)n12` [Example 400, (S)-(1-{4-[7-(2-methoxy-ethoxy)-1-methyl-[1,2,4]triazolo[4,3-a]quinoxaline-4-ylamino]-butylcarbamoyl}-2-methyl-propyl)-carbamic acid isopropylester]: the concentration for half-maximal inhibition (IC50) in test [1] (setting [3]) is 200 nM; in test [2] (setting [4]) it was not above 10 nM; in test [2] (setting [6]), 1 nM.

As to `CCCOC(=O)N[C@H](C(=O)NCCCCNc1nc2cc(OCCOC)ccc2n2c(C)nnc12)C(C)C` [Example 399, (S)-(1-{4-[7-(2-methoxy-ethoxy)-1-methyl-[1,2,4]triazolo[4,3-a]quinoxaline-4-ylamino]-butylcarbamoyl}-2-methyl-propyl)-carbamic acid propylester], the IC50 was 570 nM in test [1] (setting [3]), not above 10 nM in test [2] (setting [4]) and 1 nM in test [2] (setting [6]).

For `Cc1nnc2c(NCCCCNC(=O)OC3CCCC3)nc3cc(OCCN4CCOCC4)ccc3n12` [Example 437, {4-[1-methyl-7-(2-morpholine-4-yl-ethoxy)-[1,2,4]triazolo[4,3-a]quinoxaline-4-ylamino]-butyl}-carbamic acid cyclopentylester], the IC50 was not above 200 nM in test [1] (setting [5]), 70 nM in test [1] (setting [3]), not above 50 nM in test [2] (setting [4]) and 31 nM in test [2] (setting [6]).

With `Cc1nnc2c(NCCCCNC(=O)CC(C)C)nc3cc(F)c(F)cc3n12` [Example 37, N-[4-(7,8-difluoro-1-methyl-[1,2,4]triazolo[4,3-a]quinoxaline-4-ylamino)-butyl]-3-methyl-butyramide], the IC50 in test [1] (setting [5]) is not above 200 nM; in test [1] (setting [3]), 121 nM; in test [2] (setting [4]), not above 10 nM; in test [2] (setting [6]) it was 8 nM.

Regarding `CCOc1ccc2c(c1)nc(NCCCCNC(=O)Cc1cccs1)c1nnc(C)n12` [Example 446, N-[4-(7-ethoxy-1-methyl-[1,2,4]triazolo[4,3-a]quinoxaline-4-ylamino)-butyl]-2-thiophene-2-yl-acetamide], the IC50 in test [1] (setting [5]) is not above 200 nM; in test [1] (setting [3]), 10 nM; in test [2] (setting [4]) it was not above 50 nM; in test [2] (setting [6]), 12 nM.

Take `Cc1nnc2c(NCCCCNC(=O)[C@@H](N)C(C)C)nc3cc(N4CC(C)OC(C)C4)ccc3n12` (stereo partly drawn) [Example 514, 2-(S)-amino-N-{4-[7-(2,6-dimethyl-morpholine-4-yl)-1-methyl-[1,2,4]triazolo[4,3-a]quinoxaline-4-ylamino]-butyl}-3-methyl-butyramide hydrochloride]: the IC50 in test [1] (setting [3]) is 432 nM; in test [2] (setting [6]), 60 nM.

What is called IC50 is the concentration that inhibits the measured activity by half.
